Test systems include NCI/ADR-RES ovarian; RXF 393 renal; SK-MEL-5 melanoma; HCT-116 colon; OVCAR-3 ovarian; SNB-75 CNS; MALME-3M melanoma; SNB-19 CNS; CCRF-CEM leukemia; MDA-MB-435; A498 renal; OVCAR-8 ovarian; MCF7 breast; HL-60(TB) leukemia; NCI-H226 lung; DU-145 prostate; NCI-H23 lung; SW-620 colon; NCI-H460 lung; A549 NSCLC.
Common to all, as to test: NCI tumour cell line growth inhibition, 48 h

This passage reports TGI results from PubChem BioAssay (NCI).

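Briefly, cells in 96-well plates were exposed to five compound concentrations for 48 h, and endpoints were estimated by linear interpolation. TGI: total growth inhibition.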

For `COc1ccc(Nc2nc3ccccc3nc2C(=O)O)cc1OC`, the TGI with NCI/ADR-RES ovarian, in the experiment on RXF 393 renal, with SK-MEL-5 melanoma, in the experiment with HCT-116 colon, in the experiment with OVCAR-3 ovarian and in the experiment on SNB-75 CNS was more than 100 µM in each case. For the same compound, the TGI in the experiment on MALME-3M melanoma is more than 100 µM; with SNB-19 CNS, more than 100 µM; in the experiment on CCRF-CEM leukemia, more than 100 µM; in the experiment with MDA-MB-435, more than 100 µM; with A498 renal it was 75.1 µM; in the experiment with OVCAR-8 ovarian, more than 100 µM. The TGI in the experiment with MCF7 breast, in the experiment on HL-60(TB) leukemia, with NCI-H226 lung, in the experiment with DU-145 prostate, in the experiment on NCI-H23 lung and with SW-620 colon was more than 100 µM in each case. For the same compound, the TGI with NCI-H460 lung and in the experiment on A549 NSCLC was more than 100 µM in each case.

For `O=C(N/N=C(/COc1cccc(Cl)c1)N=Cc1cccnc1)c1ccncc1`, the TGI with NCI/ADR-RES ovarian, with RXF 393 renal, in the experiment on HCT-116 colon, with OVCAR-3 ovarian, with SNB-75 CNS and in the experiment with MALME-3M melanoma was more than 100 µM in each case. Moreover, the TGI in the experiment with SNB-19 CNS, with CCRF-CEM leukemia, in the experiment on MDA-MB-435, with A498 renal, in the experiment on OVCAR-8 ovarian and with MCF7 breast was more than 100 µM each time. Moreover, the TGI in the experiment on HL-60(TB) leukemia, in the experiment on NCI-H226 lung, in the experiment with DU-145 prostate, in the experiment with NCI-H23 lung, in the experiment with SW-620 colon and in the experiment on NCI-H460 lung was more than 100 µM throughout. Moreover, the TGI in the experiment with A549 NSCLC was more than 100 µM.

As for `CC1OC(O[C@H]2CC[C@]3(C=O)[C@H]4CC[C@]5(C)[C@H](C6=CC(=O)OC6)CC[C@]5(O)[C@@H]4C=C[C@]3(O)C2)CC(O)C1O` (stereo partly specified), the TGI in the experiment on NCI/ADR-RES ovarian was 0.623 µM; in the experiment on RXF 393 renal, 0.193 µM; in the experiment with SK-MEL-5 melanoma, 0.359 µM; with HCT-116 colon, 0.349 µM; in the experiment with OVCAR-3 ovarian, 0.583 µM; in the experiment on SNB-75 CNS it was 2.31 µM. In addition, the TGI turned out to be 0.361 µM in the experiment with MALME-3M melanoma; 3.25 µM in the experiment on SNB-19 CNS; 0.82 µM in the experiment with CCRF-CEM leukemia; 0.701 µM with MDA-MB-435; 0.611 µM in the experiment with A498 renal; 0.754 µM with OVCAR-8 ovarian. Also, the TGI with MCF7 breast is 2.71 µM; in the experiment on HL-60(TB) leukemia, 0.689 µM; in the experiment with NCI-H226 lung, 1.33 µM; in the experiment on DU-145 prostate, 0.442 µM; with NCI-H23 lung it was 0.494 µM; in the experiment with SW-620 colon, 0.902 µM. For the same compound, the TGI with NCI-H460 lung was 0.423 µM; with A549 NSCLC, 0.378 µM.

For the compound `O=C1C(Cl)C(c2cc3cc(Br)ccc3nc2Cl)N1c1c(Cl)cccc1Cl` (stereo unspecified), the TGI with NCI/ADR-RES ovarian, with RXF 393 renal, in the experiment on SK-MEL-5 melanoma, with HCT-116 colon, in the experiment on OVCAR-3 ovarian and with SNB-75 CNS was more than 25 µM in each case. In addition, the TGI in the experiment with MALME-3M melanoma is more than 25 µM; with SNB-19 CNS it was more than 25 µM; with CCRF-CEM leukemia, 20 µM; with MDA-MB-435, more than 25 µM; in the experiment on A498 renal, more than 25 µM; in the experiment on OVCAR-8 ovarian it was more than 25 µM. In addition, the TGI was 22.6 µM with MCF7 breast; more than 25 µM with HL-60(TB) leukemia; more than 25 µM in the experiment on NCI-H226 lung; more than 25 µM with DU-145 prostate; more than 25 µM in the experiment with NCI-H23 lung; more than 25 µM in the experiment on SW-620 colon. The TGI in the experiment with NCI-H460 lung and in the experiment on A549 NSCLC was more than 25 µM throughout.

Consider `COc1cccc2cc(C(=O)Nc3ccccn3)c(=N)oc12`, for which the TGI was more than 100 µM in the experiment on NCI/ADR-RES ovarian; more than 100 µM in the experiment on RXF 393 renal; more than 100 µM with SK-MEL-5 melanoma; more than 100 µM in the experiment on HCT-116 colon; 88.4 µM in the experiment on OVCAR-3 ovarian; more than 100 µM in the experiment with SNB-75 CNS. For the same compound, the TGI with MALME-3M melanoma, in the experiment on SNB-19 CNS, with CCRF-CEM leukemia, in the experiment on MDA-MB-435, in the experiment with A498 renal and with OVCAR-8 ovarian was more than 100 µM each time. For the same compound, the TGI in the experiment with MCF7 breast was more than 100 µM; in the experiment with HL-60(TB) leukemia, 82.9 µM; in the experiment on NCI-H226 lung, more than 100 µM; with DU-145 prostate, more than 100 µM; in the experiment with NCI-H23 lung, more than 100 µM; in the experiment on SW-620 colon, more than 100 µM. Moreover, the TGI in the experiment with NCI-H460 lung and in the experiment with A549 NSCLC was more than 100 µM throughout.

With `CCC(=O)NCCc1c2c3c(ccnc3c3ncsc13)-c1ccccc1N2`, the TGI with NCI/ADR-RES ovarian is more than 100 µM; in the experiment with RXF 393 renal, more than 100 µM; in the experiment with SK-MEL-5 melanoma, 34.2 µM; in the experiment with HCT-116 colon, 51.2 µM; in the experiment with OVCAR-3 ovarian, more than 66.5 µM; with SNB-75 CNS, more than 88.3 µM. The TGI is more than 100 µM with MALME-3M melanoma; more than 100 µM in the experiment on SNB-19 CNS; more than 100 µM in the experiment with CCRF-CEM leukemia; more than 64.5 µM with MDA-MB-435; more than 100 µM in the experiment with A498 renal; more than 71.1 µM in the experiment with OVCAR-8 ovarian. Further, the TGI was more than 100 µM in the experiment with MCF7 breast; more than 13.4 µM in the experiment on HL-60(TB) leukemia; 16.7 µM with NCI-H226 lung; more than 100 µM in the experiment with DU-145 prostate; more than 100 µM in the experiment on NCI-H23 lung; more than 100 µM in the experiment on SW-620 colon. Moreover, the figures for the TGI in the experiment with NCI-H460 lung and in the experiment on A549 NSCLC were 29.1 µM and more than 53.1 µM, respectively.

As for `NC(=O)C(Nc1ccc(Cl)cc1)c1cc2cc(Br)ccc2nc1Cl` (stereo unspecified), the TGI with NCI/ADR-RES ovarian, with RXF 393 renal, with SK-MEL-5 melanoma, in the experiment with HCT-116 colon, with OVCAR-3 ovarian and in the experiment on SNB-75 CNS was more than 50 µM in each case. Moreover, the TGI in the experiment with MALME-3M melanoma, in the experiment with SNB-19 CNS, with CCRF-CEM leukemia, in the experiment on MDA-MB-435, with A498 renal and with OVCAR-8 ovarian was more than 50 µM in each case. The TGI with MCF7 breast, with HL-60(TB) leukemia, in the experiment with NCI-H226 lung, in the experiment on DU-145 prostate, in the experiment on NCI-H23 lung and in the experiment on SW-620 colon was more than 50 µM each time. The TGI in the experiment with NCI-H460 lung and in the experiment on A549 NSCLC was more than 50 µM in each case.

As to `COc1ccc2c(CCNS(=O)(=O)c3ccccc3)c(C(C)=O)[nH]c2c1`, the TGI with NCI/ADR-RES ovarian is more than 100 µM; in the experiment on RXF 393 renal, more than 100 µM; with SK-MEL-5 melanoma, more than 68.1 µM; in the experiment with HCT-116 colon, more than 100 µM; in the experiment with OVCAR-3 ovarian, more than 100 µM; with SNB-75 CNS, more than 100 µM. Besides, the TGI was more than 100 µM in the experiment with MALME-3M melanoma; more than 100 µM with SNB-19 CNS; more than 100 µM in the experiment on CCRF-CEM leukemia; more than 75.6 µM in the experiment with MDA-MB-435; more than 100 µM in the experiment with A498 renal; more than 100 µM in the experiment on OVCAR-8 ovarian. Besides, the TGI with MCF7 breast, in the experiment on HL-60(TB) leukemia, with NCI-H226 lung, in the experiment on DU-145 prostate, in the experiment with NCI-H23 lung and with SW-620 colon was more than 100 µM in each case. Besides, the TGI in the experiment on NCI-H460 lung and in the experiment with A549 NSCLC was more than 100 µM each time.

On to `Cc1c(-c2ccccc2)c(C#N)c2nnn(-c3cccc(Cl)c3)c(=O)n12`, for which the TGI in the experiment with NCI/ADR-RES ovarian, with RXF 393 renal, with SK-MEL-5 melanoma, in the experiment on HCT-116 colon, with OVCAR-3 ovarian and in the experiment with SNB-75 CNS was more than 100 µM in each case. In addition, the TGI in the experiment on MALME-3M melanoma was more than 100 µM; with CCRF-CEM leukemia it was more than 100 µM; in the experiment on MDA-MB-435 it was more than 100 µM; in the experiment with A498 renal, 98.5 µM; in the experiment with OVCAR-8 ovarian, more than 100 µM; with MCF7 breast, more than 100 µM. For the same compound, the TGI in the experiment on HL-60(TB) leukemia, with NCI-H226 lung, in the experiment on DU-145 prostate, in the experiment on NCI-H23 lung, in the experiment with SW-620 colon and with NCI-H460 lung was more than 100 µM in each case.

For the compound `O=C(CCOS(=O)(=O)CF)N1CCN(C(=O)CCOS(=O)(=O)CF)CC1`, the TGI with NCI/ADR-RES ovarian is more than 100 µM; with RXF 393 renal, more than 100 µM; with SK-MEL-5 melanoma, more than 100 µM; with HCT-116 colon, more than 100 µM; in the experiment on OVCAR-3 ovarian it was more than 100 µM; with SNB-75 CNS, more than 56.7 µM. The TGI with MALME-3M melanoma was more than 100 µM; in the experiment with SNB-19 CNS, more than 100 µM; in the experiment on CCRF-CEM leukemia, more than 87.9 µM; in the experiment with MDA-MB-435 it was more than 100 µM; with A498 renal, more than 100 µM; with OVCAR-8 ovarian it was more than 100 µM. Moreover, the TGI is more than 100 µM in the experiment with MCF7 breast; 29.6 µM in the experiment with HL-60(TB) leukemia; more than 100 µM in the experiment on NCI-H226 lung; more than 100 µM in the experiment on DU-145 prostate; more than 100 µM in the experiment with NCI-H23 lung; more than 100 µM in the experiment on SW-620 colon. Also, the TGI in the experiment on NCI-H460 lung and with A549 NSCLC was more than 100 µM each time.

As to `COc1ccccc1NC(=S)Nc1cc(C)ccn1`, the TGI in the experiment with NCI/ADR-RES ovarian, in the experiment on RXF 393 renal, with SK-MEL-5 melanoma, in the experiment on HCT-116 colon, in the experiment on OVCAR-3 ovarian and in the experiment with SNB-75 CNS was more than 100 µM throughout. The TGI in the experiment on MALME-3M melanoma, in the experiment on SNB-19 CNS, in the experiment on CCRF-CEM leukemia, with MDA-MB-435, in the experiment with A498 renal and in the experiment with OVCAR-8 ovarian was more than 100 µM throughout. Besides, the TGI with MCF7 breast, in the experiment on HL-60(TB) leukemia, with NCI-H226 lung, in the experiment on DU-145 prostate, in the experiment on SW-620 colon and in the experiment on NCI-H460 lung was more than 100 µM throughout. In addition, in the experiment on A549 NSCLC, the TGI was more than 100 µM.
